Test results from ChEMBL document CHEMBL1201862, “PubChem BioAssay data set” (2004).
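96-well plates; 48 h exposure; 5 concentrations. Endpoints by linear interpolation between flanking doses. Not reached: highest tested concentration assigned. GI50 = concentration required for 50% inhibition of growth.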 Calls of active or inactive are those of the source. No stated cut-off is given here; in the data, active = GI50 up to about 1.1 µM and inactive = higher.

How the values were obtained:
Assay in all cases: DTP human tumour cell line panel, 48 h
A498 = test system: A498
A549 = test system: A549
CAKI-1 = test system: CAKI-1
CCRF-CEM = test system: CCRF-CEM
COLO 205 = test system: COLO 205
DLD-1 = test system: DLD-1
DMS-114 = test system: DMS-114
DMS-273 = test system: DMS-273
EKVX = test system: EKVX
HCC 2998 = test system: HCC 2998
HCT-116 = test system: HCT-116
HCT-15 = test system: HCT-15
HL-60 = test system: HL-60
HOP-18 = test system: HOP-18
HOP-62 = test system: HOP-62
HOP-92 = test system: HOP-92
HT-29 = test system: HT-29
IGROV-1 = test system: IGROV-1
K562 = test system: K562
KM-20L2 = test system: KM-20L2
KM12 = test system: KM12
LOX IMVI = test system: LOX IMVI
M19-MEL = test system: M19-MEL
MCF7 = test system: MCF7
MOLT-4 = test system: MOLT-4
Malme-3M = test system: Malme-3M
NCI-H226 = test system: NCI-H226
NCI-H23 = test system: NCI-H23
NCI-H460 = test system: NCI-H460
NCI-H522 = test system: NCI-H522
NCI/ADR-RES = test system: NCI/ADR-RES
OVCAR-3 = test system: OVCAR-3
OVCAR-4 = test system: OVCAR-4
OVCAR-5 = test system: OVCAR-5
OVCAR-8 = test system: OVCAR-8
RPMI-8226 = test system: RPMI-8226
RXF 393 = test system: RXF 393
SF-268 = test system: SF-268
SF-295 = test system: SF-295
SF-539 = test system: SF-539
SK-MEL-28 = test system: SK-MEL-28
SK-MEL-2 = test system: SK-MEL-2
SK-MEL-5 = test system: SK-MEL-5
SK-OV-3 = test system: SK-OV-3
SN12C = test system: SN12C
SNB-19 = test system: SNB-19
SNB-75 = test system: SNB-75
SNB-78 = test system: SNB-78
SW-620 = test system: SW-620
U-251 = test system: U-251
UACC-257 = test system: UACC-257
UACC-62 = test system: UACC-62
UO-31 = test system: UO-31
XF498 = test system: XF498
786-0 = test system: 786-0
ACHN = test system: ACHN
LXFL 529 = test system: LXFL 529
M14 = test system: M14
RXF 631 = test system: RXF 631
TK-10 = test system: TK-10

O=C(NC(Cc1ccc(Br)cc1)C(=O)O)c1ccc(I)cc1 (stereo not drawn)
GI50 (A498): > 100 µM (inactive) | GI50 (A549): > 100 µM (inactive) | GI50 (CAKI-1): > 100 µM (inactive) | GI50 (CCRF-CEM): > 72.9 µM (inactive) | GI50 (COLO 205): > 100 µM (inactive) | GI50 (DLD-1): > 100 µM (inactive) | GI50 (DMS-114): 70.5 µM (inactive) | GI50 (DMS-273): > 100 µM (inactive) | GI50 (EKVX): > 52 µM (inactive) | GI50 (HCC 2998): > 47.4 µM (inactive) | GI50 (HCT-116): > 100 µM (inactive) | GI50 (HCT-15): > 100 µM | GI50 (HL-60): > 100 µM (inactive) | GI50 (HOP-18): > 100 µM (inactive) | GI50 (HOP-62): > 100 µM (inactive) | GI50 (HOP-92): 65.3 µM (inactive) | GI50 (HT-29): > 100 µM (inactive) | GI50 (IGROV-1): > 100 µM (inactive) | GI50 (K562): > 100 µM (inactive) | GI50 (KM-20L2): > 100 µM (inactive) | GI50 (KM12): > 100 µM (inactive) | GI50 (LOX IMVI): > 100 µM (inactive) | GI50 (M19-MEL): > 100 µM (inactive) | GI50 (MCF7): > 100 µM (inactive) | GI50 (MOLT-4): > 69.5 µM (inactive) | GI50 (Malme-3M): 83.4 µM (inactive) | GI50 (NCI-H226): > 100 µM (inactive) | GI50 (NCI-H23): > 100 µM (inactive) | GI50 (NCI-H460): > 100 µM (inactive) | GI50 (NCI-H522): > 82.6 µM (inactive) | GI50 (NCI/ADR-RES): > 100 µM (inactive) | GI50 (OVCAR-3): > 69.7 µM (inactive) | GI50 (OVCAR-4): 75.3 µM (inactive) | GI50 (OVCAR-5): > 100 µM (inactive) | GI50 (OVCAR-8): > 100 µM (inactive) | GI50 (RPMI-8226): > 68.9 µM (inactive) | GI50 (RXF 393): > 100 µM (inactive) | GI50 (SF-268): > 100 µM (inactive) | GI50 (SF-295): > 100 µM (inactive) | GI50 (SF-539): > 100 µM (inactive) | GI50 (SK-MEL-28): > 100 µM (inactive) | GI50 (SK-MEL-2): > 100 µM (inactive) | GI50 (SK-MEL-5): > 100 µM (inactive) | GI50 (SK-OV-3): > 100 µM (inactive) | GI50 (SN12C): > 100 µM (inactive) | GI50 (SNB-19): > 81.3 µM (inactive) | GI50 (SNB-75): > 95.7 µM (inactive) | GI50 (SNB-78): > 100 µM (inactive) | GI50 (SW-620): > 100 µM (inactive) | GI50 (U-251): > 95.3 µM (inactive) | GI50 (UACC-257): > 100 µM (inactive) | GI50 (UACC-62): 71.9 µM (inactive) | GI50 (UO-31): > 100 µM (inactive) | GI50 (XF498): > 100 µM (inactive)

CCCCCCCCC1C(C)c2c([nH]c3ccccc23)C2C(=O)N(c3ccccc3)C(=O)C21 (stereo not drawn)
GI50 (786-0): 13.1 µM (inactive) | GI50 (A498): 21.1 µM (inactive) | GI50 (A549): 14 µM (inactive) | GI50 (ACHN): 11.5 µM (inactive) | GI50 (CAKI-1): 14 µM (inactive) | GI50 (CCRF-CEM): 2.76 µM (inactive) | GI50 (DLD-1): 18.9 µM (inactive) | GI50 (DMS-114): 10.6 µM (inactive) | GI50 (DMS-273): 9.75 µM (inactive) | GI50 (EKVX): 21.1 µM (inactive) | GI50 (HCC 2998): 12.5 µM (inactive) | GI50 (HCT-116): 3.27 µM (inactive) | GI50 (HCT-15): 11.2 µM | GI50 (HL-60): 3.27 µM (inactive) | GI50 (HOP-62): 21 µM (inactive) | GI50 (HT-29): 4.7 µM (inactive) | GI50 (IGROV-1): 17.6 µM (inactive) | GI50 (K562): 3.9 µM (inactive) | GI50 (KM-20L2): 11.2 µM (inactive) | GI50 (KM12): 3.71 µM (inactive) | GI50 (LXFL 529): 16.5 µM (inactive) | GI50 (M14): 14 µM (inactive) | GI50 (M19-MEL): 15.7 µM (inactive) | GI50 (MOLT-4): 2.27 µM (inactive) | GI50 (Malme-3M): 19.5 µM (inactive) | GI50 (NCI-H226): 11.8 µM (inactive) | GI50 (NCI-H23): 3.73 µM (inactive) | GI50 (NCI-H460): 3.82 µM (inactive) | GI50 (OVCAR-3): 5.08 µM (inactive) | GI50 (OVCAR-4): 4.3 µM (inactive) | GI50 (OVCAR-5): 18.3 µM (inactive) | GI50 (OVCAR-8): 11.1 µM (inactive) | GI50 (RPMI-8226): 3.4 µM (inactive) | GI50 (RXF 393): 2.38 µM (inactive) | GI50 (RXF 631): 3.41 µM (inactive) | GI50 (SF-295): 15.7 µM (inactive) | GI50 (SF-539): 17.3 µM (inactive) | GI50 (SK-MEL-28): 16.8 µM (inactive) | GI50 (SK-MEL-2): 16 µM (inactive) | GI50 (SK-MEL-5): 16.3 µM (inactive) | GI50 (SK-OV-3): 28.7 µM (inactive) | GI50 (SN12C): 11.4 µM (inactive) | GI50 (SNB-75): 19 µM (inactive) | GI50 (SNB-78): 9.62 µM (inactive) | GI50 (SW-620): 14.8 µM (inactive) | GI50 (TK-10): 20.1 µM (inactive) | GI50 (U-251): 8.53 µM (inactive) | GI50 (UACC-257): > 10 µM (inactive) | GI50 (UACC-62): 18.9 µM (inactive) | GI50 (UO-31): 15.2 µM (inactive)

C/C=C/C=C\C(=O)C1c2cccc(O)c2C(=O)c2c(O)cc(C)cc21 (stereo not drawn)
GI50 (786-0): 2.03 µM (inactive) | GI50 (A498): 2.74 µM (inactive) | GI50 (A549): 0.719 µM (active) | GI50 (ACHN): 1.35 µM (inactive) | GI50 (CAKI-1): 2.08 µM (inactive) | GI50 (CCRF-CEM): 1.27 µM (inactive) | GI50 (COLO 205): 1.64 µM (inactive) | GI50 (DLD-1): 1.9 µM (inactive) | GI50 (DMS-114): 0.383 µM (active) | GI50 (DMS-273): 1.65 µM (inactive) | GI50 (EKVX): 3.38 µM (inactive) | GI50 (HCC 2998): 0.306 µM (active) | GI50 (HCT-116): 1.52 µM (inactive) | GI50 (HCT-15): 1.76 µM | GI50 (HL-60): 0.294 µM (active) | GI50 (HOP-18): 1.88 µM (inactive) | GI50 (HOP-62): 2.04 µM (inactive) | GI50 (HOP-92): 1.39 µM (inactive) | GI50 (HT-29): 2.06 µM (inactive) | GI50 (IGROV-1): 1.57 µM (inactive) | GI50 (K562): 0.356 µM (active) | GI50 (KM-20L2): 1.98 µM (inactive) | GI50 (KM12): 0.425 µM (active) | GI50 (LOX IMVI): 1.79 µM (inactive) | GI50 (M19-MEL): 0.828 µM (active) | GI50 (MOLT-4): 2.92 µM (inactive) | GI50 (Malme-3M): 1.68 µM (inactive) | GI50 (NCI-H226): 1.11 µM (active) | GI50 (NCI-H23): 1.76 µM (inactive) | GI50 (NCI-H460): 0.406 µM (active) | GI50 (NCI-H522): 1.66 µM (inactive) | GI50 (OVCAR-3): 1.02 µM (active) | GI50 (OVCAR-4): 1.7 µM (inactive) | GI50 (OVCAR-5): 1.82 µM (inactive) | GI50 (OVCAR-8): 1.81 µM (inactive) | GI50 (RPMI-8226): 2.14 µM (inactive) | GI50 (RXF 393): 1.37 µM (inactive) | GI50 (SF-268): 0.705 µM (active) | GI50 (SF-295): 0.957 µM (active) | GI50 (SF-539): 0.432 µM (active) | GI50 (SK-MEL-28): 1.69 µM (inactive) | GI50 (SK-MEL-2): 1.01 µM (active) | GI50 (SK-MEL-5): 1.39 µM (inactive) | GI50 (SK-OV-3): 1.43 µM (inactive) | GI50 (SN12C): 2.33 µM (inactive) | GI50 (SNB-19): 0.442 µM (active) | GI50 (SNB-75): 1.29 µM (inactive) | GI50 (SNB-78): 1.65 µM (inactive) | GI50 (SW-620): 1.19 µM (inactive) | GI50 (TK-10): 1.7 µM (inactive) | GI50 (U-251): 0.446 µM (active) | GI50 (UACC-257): 1.83 µM (inactive) | GI50 (UO-31): 1.71 µM (inactive) | GI50 (XF498): 0.232 µM (active)
